Literature values as cited in patent publication US20100273711A1, “INDIVIDUALIZED CANCER TREATMENTS” (priority 2007, published 2010).

Key:
ES2 = conditions: pemetrexed, cell line ES2; cited from earlier work
SK-MEL-2 = conditions: pemetrexed, cell line SK-MEL-2; cited from earlier work
HL-60 = conditions: pemetrexed, cell line HL-60; cited from earlier work
257p = conditions: pemetrexed, cell line 257P; cited from earlier work
HCT-116 = conditions: pemetrexed, cell line HCT-116; cited from earlier work
SK-MEL-28 = conditions: pemetrexed, cell line SK-MEL-28; cited from earlier work
MDA-MB-231 = conditions: pemetrexed, cell line MDA-MB-231; cited from earlier work
OAW42 = conditions: pemetrexed, cell line OAW42; cited from earlier work
R103 = conditions: pemetrexed, cell line R103; cited from earlier work
MALME-3M = conditions: pemetrexed, cell line MALME-3M; cited from earlier work
FUOV1 = conditions: pemetrexed, cell line FUOV1; cited from earlier work
K-562 = conditions: pemetrexed, cell line K-562; cited from earlier work
NCI-H460 = conditions: pemetrexed, cell line NCI-H460; cited from earlier work
A375 = conditions: pemetrexed, cell line A375; cited from earlier work
SNU423 = conditions: pemetrexed, cell line SNU423; cited from earlier work
OVKAR = conditions: pemetrexed, cell line OVKAR; cited from earlier work
DV90 = conditions: pemetrexed, cell line DV90; cited from earlier work
SNU182 = conditions: pemetrexed, cell line SNU182; cited from earlier work
SKMel19 = conditions: pemetrexed, cell line SKMel19; cited from earlier work
SW13 = conditions: pemetrexed, cell line Sw13; cited from earlier work
BT20 = conditions: pemetrexed, cell line BT20; cited from earlier work
SNB-19 = conditions: pemetrexed, cell line SNB-19; cited from earlier work
HS578T = conditions: pemetrexed, cell line HS578T; cited from earlier work
C8161 = conditions: pemetrexed, cell line C8161; cited from earlier work

Measured: Resistant (Res) or Sensitive (Sen)

Nc1nc2[nH]cc(CCc3ccc(C(=O)N[C@@H](CCC(=O)O)C(=O)O)cc3)c2c(=O)[nH]1 [Pemetrexed, pemetrexed]
Res: ES2 | HL-60 | 257p | HCT-116 | K-562 | NCI-H460 | A375 | SNU423 | SNU182 | SKMel19 | SW13 | C8161
Sen: all other assays above
